Assay results reported in patent publication US7317018B2, “Anti-inflammatory medicament” (Medestea Internazionale S.p.A., priority 2000, dated 2008).

Columns and labels:
Assay type in all cases: in vivo
[1] = tested on: rat hind paw inflamed by Freund's complete adjuvant (FCA); assay: Paw pressure test (nociceptive threshold) and inflammatory signs in rat hind paw inflamed by intraplantar Freund's complete adjuvant (FCA)
Experimental: As experimental model, a unilateral inflammation in rat hind paw, after intraplantar injection of Freund's complete adjuvant (FCA), has been used. The controlateral paw of treated animals, as well as that of untreated animals, were used as controls. Inflammation induced by FCA was evidenced, from 3 h until 24-48 h following injection, by increase in paw volume, hyperthermia and hyperalgesia. The latter was evaluated by an algesyometric test (paw pressure test) capable of evaluating the nociceptive threshold. […] Different doses of oATP always induced a significant, dose-dependent analgesic effect, lasting approximately 12-24 hours, with an effect peak already one hour after the administration.
(§1) Male Fischer inbred rats (Charles River Italy, Calco, Lecco, Italy) weighing about 250 g were used. Rats, under brief isoflurane anaesthesia received an intraplantar injection of Freund's complete adjuvant (FCA) (0.15 ml) into the right hind paw. This injection induced a unilateral inflammation (from 3 h until 24-48 h following injection) evidenced by increase in paw volume, hyperthermia and hyperalgesia. Hyperalgesia was assessed by an algesyometric test, using an analgesyometer (Ugo Basile, Comerio, Italy) to determine the paw pressure threshold, expressed in grams, namely the pressure required to elicit paw withdrawal, which indicates the nociceptive threshold value. 6 to 8 rats were used for each test. During these trials, animals were treated according to the “standard ethical guidelines” (NIH, 1985).
Rat inflamed paw received, 24 hrs after FCA injection, intraplantar injection of different doses of oATP (56 to 336 μM), considering time 0 the moment of oATP injection.
The effect of the maximal oATP dose used was tested in a further set of experiments, for more prolonged times, on rat paws in which the inflammatory process had been induced 48 hrs before (table 2). […]

noninflamed rat paws = assay: Paw pressure test (nociceptive threshold) in noninflamed rat paws
Experimental: as §1
Dose/effect curves in noninflamed paws were in fact superimposable (until 120′ after oATP administration) using different concentrations of the molecule. In order to ascertain whether oATP analgesic effect was somewhat related to the activation of inflammatory cells able to produce endogenous β-endorphins, some rats were intravenously injected with fucoidin (10 mg/kg). Fucoidin in fact inhibits leukocyte diapedesis and their accumulation at the inflammation site. Pre-treatment with fucoidin was carried out in both paws, 30′ before FCA injection in one of the rat paws. Pain pressure threshold (PPT) was measured in both noninflamed and inflamed paws, before and after oATP injection (224 μm).

[2] = tested on: ATP content in paw subcutaneous tissue; assay: ATP content of rat paw subcutaneous tissue, luminescence method; conditions: for ATP levels: 6 and 12 h following intraplantar oATP (35 μM), FIG. 3
Experimental: ATP content was assessed in oATP treated rat paws and controlateral untreated ones. Paw subcutaneous tissues were removed from both inflamed and noninflamed paws and rapidly frozen in liquid nitrogen. The frozen tissue samples were weighed, homogenised in phosphate buffer, then treated with K2CO3 and neutralised, finally centrifuged. The supernatant was used for ATP assay, following the luminescence method. We determined in a separate group of rats the modifications in ATP content induced in the plantar tissue by the inflammatory process and/or by oATP treatment. At established times, paw subcutaneous tissues were removed and rapidly frozen in liquid nitrogen, with the aim of blocking any metabolic activity. The frozen tissue was homogenized with a polytron (Kinematica GmbH, Luzern, Switzerland) in ice-cold 6% (w/v) HClO4 to extract nucleotides. The homogenate was centrifuged and the supernatant was used for ATP determination, following the procedure previously described (Marni et al., Transplantation (1988), 46: 830-835). ATP assay was performed by luminescence method (Ferrero et al., Res Commun Chem Path Pharmac 1984; 45: 55-67). We measured ATP levels, in inflamed (by 24 h FCA treatment) and noninflamed paws treated with oATP, at 6 and 12 h following oATP administration, and in controlateral untreated paws. […] ATP content, at 6 and 12 h following intraplantar oATP (35 μM) injection in rat paws: inflamed (by 24 FCA administration) (filled bars), inflamed-oATP treated (hatched bars), noninflamed (open bars), noninflamed-oATP-treated (horizontal line bars). *p<0.005 compared with inflamed untreated paws, Wilcoxon test. Data are expressed as means±S.E.M. of 7 experiments.

In the case of `Nc1ncnc2c1ncn2[C@@H]1O[C@H](COP(=O)(O)OP(=O)(O)OP(=O)(O)O)[C@@H](O)[C@H]1O` [ATP, reference compound], the nociceptive threshold ([1]; inflamed paws, after intraplantar injection of ATP (0.9 mmoles)) is reported as 50±4.1, the nociceptive threshold ([1]; inflamed paws, before intraplantar injection of ATP (0.9 mmoles)) is reported as 65±4.2 and the nociceptive threshold (noninflamed rat paws; 240′ after intraplantar injection of ATP (0.9 mmoles)) is reported as 25±3.0. For the same compound, the nociceptive threshold (noninflamed rat paws; before intraplantar injection of ATP (0.9 mmoles)) was 120±3.2.
In the case of `Nc1ncnc2c1ncn2[C@@H](C=O)O[C@@H](C=O)COP(=O)(O)OP(=O)(O)OP(=O)(O)O` [oATP, adenosine-5′-triphosphate-2′,3′-dialdehyde], the “pain pressure threshold (PPT)” value ([1]; inflamed paws, fucoidin 10 mg/kg i.v. pre-treatment 30′ before FCA, oATP injection 224 μm, FIG. 1) is reported as “restored PPT levels”, the “duration of analgesic effect” value ([1]; intraplantar injection, different doses of oATP) is reported as 12 to 24 h and the “dose dependence of analgesic effect” value ([1]; intraplantar oATP 56 to 336 μM) is reported as “dose-dependent effect”. The “analgesic efficacy compared with diclofenac” value ([1]; local treatment 3 hours after FCA, oATP 336 μM vs diclofenac 15 mg, FIG. 2) was “significantly higher than that of diclofenac”, the “nociceptive threshold or paw pressure threshold” value ([1]; oATP 56 μM intraplantar, 24 hrs after FCA, inflamed paw, 30′) was 120 ± 2.1 g and the “nociceptive threshold or paw pressure threshold” value ([1]; oATP 56 μM intraplantar, 24 hrs after FCA, inflamed paw, 60′) was 190 ± 2.3 g. The “nociceptive threshold or paw pressure threshold” value ([1]; oATP 56 μM intraplantar, 24 hrs after FCA, inflamed paw, 90′) was 85 ± 2.5 g, the “nociceptive threshold or paw pressure threshold” value ([1]; oATP 56 μM intraplantar, 24 hrs after FCA, inflamed paw, 120′) was 75 ± 1.8 g and the “nociceptive threshold or paw pressure threshold” value ([1]; oATP 56 μM intraplantar, 24 hrs after FCA, inflamed paw, 240′) was 75 ± 2.6 g. For the same compound, the “nociceptive threshold or paw pressure threshold” value ([1]; oATP 56 μM intraplantar, 24 hrs after FCA, inflamed paw, time 0′ (untreated inflamed paw, baseline)) was 60 ± 1.6 g, the “nociceptive threshold or paw pressure threshold” value ([1]; oATP 112 μM intraplantar, 24 hrs after FCA, inflamed paw, 30′) was 140 ± 3.5 g and the “nociceptive threshold or paw pressure threshold” value ([1]; oATP 112 μM intraplantar, 24 hrs after FCA, inflamed paw, 60′) was 180 ± 4.2 g. For the same compound, the “nociceptive threshold or paw pressure threshold” value ([1]; oATP 112 μM intraplantar, 24 hrs after FCA, inflamed paw, 90′) was 150 ± 3.8 g, the “nociceptive threshold or paw pressure threshold” value ([1]; oATP 112 μM intraplantar, 24 hrs after FCA, inflamed paw, 120′) was 100 ± 3.0 g and the “nociceptive threshold or paw pressure threshold” value ([1]; oATP 112 μM intraplantar, 24 hrs after FCA, inflamed paw, 240′) was 105 ± 4.3 g. The “nociceptive threshold or paw pressure threshold” value ([1]; oATP 112 μM intraplantar, 24 hrs after FCA, inflamed paw, time 0′ (untreated inflamed paw, baseline)) was 65 ± 2.0 g, the “nociceptive threshold or paw pressure threshold” value ([1]; oATP 224 μM intraplantar, 24 hrs after FCA, inflamed paw, 30′) was 350 ± 54 g and the “nociceptive threshold or paw pressure threshold” value ([1]; oATP 224 μM intraplantar, 24 hrs after FCA, inflamed paw, 60′) was 400 ± 10.3 g. For the same compound, the “nociceptive threshold or paw pressure threshold” value ([1]; oATP 224 μM intraplantar, 24 hrs after FCA, inflamed paw, 90′) was 300 ± 11.2 g, the “nociceptive threshold or paw pressure threshold” value ([1]; oATP 224 μM intraplantar, 24 hrs after FCA, inflamed paw, 120′) was 185 ± 7.1 g and the “nociceptive threshold or paw pressure threshold” value ([1]; oATP 224 μM intraplantar, 24 hrs after FCA, inflamed paw, 240′) was 180 ± 8.9 g. The “nociceptive threshold or paw pressure threshold” value ([1]; oATP 224 μM intraplantar, 24 hrs after FCA, inflamed paw, time 0′ (untreated inflamed paw, baseline)) was 50 ± 1.5 g, the “nociceptive threshold or paw pressure threshold” value ([1]; oATP 336 μM intraplantar, 24 hrs after FCA, inflamed paw, 30′) was 300 ± 3.4 g and the “nociceptive threshold or paw pressure threshold” value ([1]; oATP 336 μM intraplantar, 24 hrs after FCA, inflamed paw, 60′, 750 = cut off) was “=> 750 *1 g”. For the same compound, the “nociceptive threshold or paw pressure threshold” value ([1]; oATP 336 μM intraplantar, 24 hrs after FCA, inflamed paw, 90′, 750 = cut off) was “=> 750 *2 g”, the “nociceptive threshold or paw pressure threshold” value ([1]; oATP 336 μM intraplantar, 24 hrs after FCA, inflamed paw, 120′) was 600 ± 20.8 g and the “nociceptive threshold or paw pressure threshold” value ([1]; oATP 336 μM intraplantar, 24 hrs after FCA, inflamed paw, 240′) was 550 ± 18.4 g. For the same compound, the “nociceptive threshold or paw pressure threshold” value ([1]; oATP 336 μM intraplantar, 24 hrs after FCA, inflamed paw, time 0′ (untreated inflamed paw, baseline)) was 60 ± 1.9 g, the “nociceptive threshold or paw pressure threshold” value ([1]; oATP 336 μM, inflammatory process induced 48 hrs before, 30′) was 210 ± 10.7 g and the “nociceptive threshold or paw pressure threshold” value ([1]; oATP 336 μM, inflammatory process induced 48 hrs before, 60′) was 360 ± 25.8 g. For the same compound, the “nociceptive threshold or paw pressure threshold” value ([1]; oATP 336 μM, inflammatory process induced 48 hrs before, 90′) was 395 ± 30.2 g, the “nociceptive threshold or paw pressure threshold” value ([1]; oATP 336 μM, inflammatory process induced 48 hrs before, 120′) was 450 ± 38.1 g and the “nociceptive threshold or paw pressure threshold” value ([1]; oATP 336 μM, inflammatory process induced 48 hrs before, 180′) was 550 ± 45.9 g. For the same compound, the “nociceptive threshold or paw pressure threshold” value ([1]; oATP 336 μM, inflammatory process induced 48 hrs before, 240′) was 690 ± 56.6 g, the “nociceptive threshold or paw pressure threshold” value ([1]; oATP 336 μM, inflammatory process induced 48 hrs before, 12 hours) was 400 ± 29.7 g and the “nociceptive threshold or paw pressure threshold” value ([1]; oATP 336 μM, inflammatory process induced 48 hrs before, 24 hours) was 210 ± 7.2 g. The “nociceptive threshold or paw pressure threshold” value ([1]; oATP 336 μM, inflammatory process induced 48 hrs before, 26 hours) was 190 ± 3.3 g, the “nociceptive threshold or paw pressure threshold” value ([1]; oATP 336 μM, inflammatory process induced 48 hrs before, time 0′ (baseline)) was 55 ± 2.0 g and the “inflammatory signs (swelling, hyperthermia)” value ([1]; oATP treated paws compared with untreated paws) was “reduction of inflammatory signs”. For the same compound, the “effect on nociceptive threshold” value (noninflamed rat paws; already at the lowest oATP concentration (56 μM), dose/effect curves superimposable until 120′) was “effective in increasing nociceptive threshold, for a short time”, the “pain pressure threshold (PPT)” value (noninflamed rat paws; fucoidin 10 mg/kg i.v. pre-treatment, oATP injection 224 μm, FIG. 1) was “did not significantly change PPT values” and the ATP levels ([2]; inflamed tissues (24 h FCA), p<0.005 vs inflamed untreated paws) was “significantly reduced”. For the same compound, the ATP levels ([2]; noninflamed tissues) was “did not significantly change ATP levels” and the “ATP content of paw homogenate” value ([2]; oATP treated paws, untreated 1050±90, mean±S.E.M. of 7 experiments) was 320±22 nmoles/g fresh tissue.
